Experimental data as given in publication PMC5473854, “Structure of the human TRiC/CCT Subunit 5 associated with hereditary sensory neuropathy” (Scientific Reports, 2017).

Molecular target: T1, human CCT5 (TRiC subunit 5) homo-oligomeric complex (Homo sapiens, UniProt P48643, H147R)
T1 construct: recombinant from pET21a in E. coli BL21(DE3)RIL, Histrap purified (tag not described here); double homo-octameric ring (two rings of eight, homo-hexadecamer)
Test: X-ray crystal structure, […] Å
Settings: co-crystallised with 5.0 mM ADP; nucleotide-binding site of equatorial domain; 4 ADP per 4 subunits in asymmetric unit

T1 sequence (P48643 whole entry H147R, one chain of several): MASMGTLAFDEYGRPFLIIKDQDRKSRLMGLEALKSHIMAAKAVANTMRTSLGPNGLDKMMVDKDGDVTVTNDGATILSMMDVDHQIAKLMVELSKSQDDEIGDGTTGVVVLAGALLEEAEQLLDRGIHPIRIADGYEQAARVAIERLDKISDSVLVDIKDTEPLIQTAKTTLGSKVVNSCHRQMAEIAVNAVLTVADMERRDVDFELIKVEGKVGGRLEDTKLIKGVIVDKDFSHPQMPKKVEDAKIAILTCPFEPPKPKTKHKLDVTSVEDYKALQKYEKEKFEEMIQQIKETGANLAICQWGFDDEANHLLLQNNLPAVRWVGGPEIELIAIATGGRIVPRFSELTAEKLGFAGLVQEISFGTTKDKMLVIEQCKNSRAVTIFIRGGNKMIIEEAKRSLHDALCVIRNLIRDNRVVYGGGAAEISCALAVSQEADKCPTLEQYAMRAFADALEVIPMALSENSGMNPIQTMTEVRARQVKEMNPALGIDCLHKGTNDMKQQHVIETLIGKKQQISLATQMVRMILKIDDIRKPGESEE

SMILES: Nc1ncnc2c1ncn2[C@@H]1O[C@H](COP(=O)(O)OP(=O)(O)O)[C@@H](O)[C@H]1O [ADP]
- X-ray crystal structure, 3.6 Å: the CCT5-H147R structure was solved in complex with the nucleotide ADP
